One assay has as its system SMN2 mRNA. The experiment in a line: RT-qPCR splicing assay, SMN2 canonical junction (CJ) mRNA. The format is cell-based, human. As to conditions: Homo sapiens; Table 5 panel; canonical junction qPCR; compound concentration having 50% response in CJ decrease; read-out: SMN2 IC50 (decrease in CJ mRNA levels). The gist of the method:
(§1)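 Read-out is canonical exon-exon junction mRNA quantified by RT-qPCR against a GAPDH, GUSB or PPIA control. Cells (A673 or K562) received compound for 24 h, top final dose 10 uM in an 11-point 3-fold series.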
(In general: Quantitative PCR measures a nucleic acid by following its amplification.)

Another assay deals with Target C. As to the kind of experiment: RT-qPCR splicing assay panel, Target C canonical junction (CJ) mRNA. The format is cell-based, human. As to conditions: Homo sapiens; Table 5 panel; canonical junction qPCR; compound concentration having 50% response in CJ decrease; read-out: Target C IC50 (decrease in CJ mRNA levels). The gist of the method:
as §1

On to `Cc1cn2cc(-c3cc(F)c4c(=O)n([C@@H]5CCNC5)ccc4c3)cc(F)c2n1` (single isomer, unassigned) [Compound 395], for which the results for the IC50 in the assay with SMN2 mRNA and in the assay with Target C were under 100 nM and over 10000 nM, respectively.

In the case of `Cc1cn2cc(-c3cc(F)c4c(=O)n([C@H]5CCNC5)ccc4c3)cc(F)c2n1` (single isomer, unassigned) [Compound 396], the values for the concentration for half-maximal inhibition (IC50) with SMN2 mRNA and in the assay with Target C were under 100 nM and over 10000 nM, respectively.

With `Cc1cn2cc(-c3ccc4c(=O)n([C@@H]5CCCNC5)ccc4c3)cc(F)c2n1` (single isomer, unassigned) [Compound 403], the IC50 in the assay on SMN2 mRNA was under 100 nM; in the assay on Target C, 1000 to 10000 nM.

For `Cc1cn2nc(-c3cc(F)c4c(=O)n([C@@H]5CCNC6(CC6)C5)ccc4c3)cc(C)c2n1` (single isomer, unassigned) [Compound 425], the IC50 in the assay on SMN2 mRNA and in the assay on Target C was under 100 nM throughout.

With `Cc1cn2nc(-c3cc(F)c4c(=O)n([C@H]5CCNC6(CC6)C5)ccc4c3)cc(C)c2n1` (single isomer, unassigned) [Compound 426], the IC50 in the assay on SMN2 mRNA and in the assay on Target C was under 100 nM in each case.

As to `Cc1cn2nc(-c3ccc4c(=O)n([C@@H]5CCNC6(CC6)C5)ncc4c3)cc(C)c2n1` (stereo in doubt) [Compound 368, 2-[(7R)-4-azaspiro[2.5]octan-7-yl]-6-{2,8-dimethylimidazo[1,2-b]pyridazin-6-yl}phthalazin-1-one], the half-inhibitory concentration (IC50) with SMN2 mRNA is under 100 nM; with Target C, 100 to 1000 nM.

On to `Cc1cn2nc(-c3cc(F)c4c(=O)n(C5CCNC5)ccc4c3)cc(C)c2n1` (stereo in doubt) [Compound 382, (R)-6-(2,8-dimethylimidazo[1,2-b]pyridazin-6-yl)-8-fluoro-2-(pyrrolidin-3-yl)isoquinolin-1(2H)-one], for which the IC50 in the assay on SMN2 mRNA is under 100 nM; in the assay on Target C, over 10000 nM.

As to `Cc1cn2nc(-c3cc(F)c4c(=O)n(C5CCNC5)ccc4c3)cc(C)c2n1` (stereo in doubt) [Compound 392, (S)-6-(2,8-dimethylimidazo[1,2-b]pyridazin-6-yl)-8-fluoro-2-(pyrrolidin-3-yl)isoquinolin-1(2H)-one], the IC50 with SMN2 mRNA is under 100 nM; in the assay on Target C, 1000 to 10000 nM.

For the molecule `Cc1cn2nc(-c3cc(C)c4c(=O)n(C5CCNC6(CC6)C5)ccc4c3)cc(C)c2n1` (stereo in doubt) [Compound 397, (S)-6-(2,8-dimethylimidazo[1,2-b]pyridazin-6-yl)-8-methyl-2-(4-azaspiro[2.5]octan-7-yl)isoquinolin-1(2H)-one], the IC50 in the assay with SMN2 mRNA was under 100 nM; in the assay with Target C it was 100 to 1000 nM.

On to `Cc1cn2nc(-c3cc(C)c4c(=O)n(C5CCNC6(CC6)C5)ccc4c3)cc(C)c2n1` (stereo in doubt) [Compound 398, (R)-6-(2,8-dimethylimidazo[1,2-b]pyridazin-6-yl)-8-methyl-2-(4-azaspiro[2.5]octan-7-yl)isoquinolin-1(2H)-one], for which the IC50 in the assay with SMN2 mRNA and in the assay on Target C was under 100 nM throughout.

As to `Cc1cn2nc(-c3ccc4c(=O)n(C5CCCNC5)ccc4c3)cc(C)c2n1` (stereo in doubt) [Compound 410, 6-{2,8-dimethylimidazo[1,2-b]pyridazin-6-yl}-2-[(3S)-piperidin-3-yl]isoquinolin-1-one], the IC50 is under 100 nM with SMN2 mRNA and over 10000 nM in the assay on Target C.

Consider `Cc1cn2nc(-c3ccc4c(=O)n(C5CCCNC5)ccc4c3)cc(C)c2n1` (stereo in doubt) [Compound 411, 6-{2,8-dimethylimidazo[1,2-b]pyridazin-6-yl}-2-[(3R)-piperidin-3-yl]isoquinolin-1-one], for which the IC50 in the assay on SMN2 mRNA is 100 to 1000 nM; in the assay on Target C it was over 10000 nM.

In the case of `Cc1cn2cc(-c3cc(F)c4c(=O)n(C5CCOC5)cnc4c3)cc(C#N)c2n1` (stereo in doubt) [Compound 499, (R)-6-(5-fluoro-4-oxo-3-(tetrahydrofuran-3-yl)-3,4-dihydroquinazolin-7-yl)-2-methylimidazo[1,2-a]pyridine-8-carbonitrile], the IC50 in the assay with SMN2 mRNA and in the assay on Target C was 100 to 1000 nM throughout.

As for `Cc1cn2cc(-c3cc(F)c4c(=O)n(C5CCOC5)cnc4c3)cc(C#N)c2n1` (stereo in doubt) [Compound 500, (S)-6-(5-fluoro-4-oxo-3-(tetrahydrofuran-3-yl)-3,4-dihydroquinazolin-7-yl)-2-methylimidazo[1,2-a]pyridine-8-carbonitrile], the IC50 in the assay on SMN2 mRNA and in the assay on Target C was 100 to 1000 nM each time.

Consider `Cn1cc2cc(-n3cnc4cc(C5=CC6CCC(C5)N6)ccc4c3=O)ccc2n1` (centres unmarked) [Compound 160], for which the IC50 in the assay on SMN2 mRNA and in the assay with Target C was over 10000 nM throughout.

As to `CN1C2C=C(c3ccc4c(=O)n(-c5ccc6nn(C)cc6c5)cnc4c3)CC1CC2` (centres unmarked) [Compound 161], the IC50 in the assay on SMN2 mRNA and in the assay with Target C was over 10000 nM in each case.

For the molecule `Cn1cc2cc(-n3cnc4cc(NC5CCNCC5)ccc4c3=O)ccc2n1` [Compound 162], the IC50 with SMN2 mRNA is over 10000 nM.

Regarding `CN1CCC(Nc2ccc3c(=O)n(-c4ccc5nn(C)cc5c4)cnc3c2)CC1` [Compound 163], the IC50 in the assay on SMN2 mRNA and with Target C was over 10000 nM each time.

With `Cn1cc2cc(-n3cnc4cc(C5CCNCC5)ccc4c3=O)ccc2n1` [Compound 172], the IC50 with SMN2 mRNA and in the assay on Target C was over 10000 nM in each case.

As to `Cc1cc(-c2ccc3c(=O)n(C4CCN(C)CC4)cnc3n2)cc2cn(C)nc12` [Compound 173], the IC50 with SMN2 mRNA lay in the range of 1000 to 10000 nM.

Consider `Cc1cc(-c2ccc3c(=O)n(C4CCNCC4)cnc3c2)cc2cn(C)nc12` [Compound 174], for which, in the assay with SMN2 mRNA, the IC50 was under 100 nM.

Turning to `Cc1cn2cc(-c3cc(N)c4c(=O)n(C5CCNCC5)cnc4c3)cc(C#N)c2n1` [Compound 364, 6-[5-amino-4-oxo-3-(piperidin-4-yl)quinazolin-7-yl]-2-methylimidazo[1,2-a]pyridine-8-carbonitrile], the IC50 in the assay on SMN2 mRNA and with Target C was over 10000 nM in each case.

Consider `Cn1cc2c(n1)CCN(c1cc(F)c3c(=O)n(C4CCNCC4)cnc3c1)C2` [Compound 365, 5-fluoro-7-(2-methyl-2,4,6,7-tetrahydro-5H-pyrazolo[4,3-c]pyridin-5-yl)-3-(piperidin-4-yl)quinazolin-4(3H)-one], for which the IC50 is 100 to 1000 nM with SMN2 mRNA and over 10000 nM in the assay with Target C.

For `Cc1cn2cc(-c3cc(F)c4c(=O)n(C5CCOC5)cnc4c3)cc(C#N)c2n1` (centres unmarked) [Compound 366, 6-[5-fluoro-4-oxo-3-(oxolan-3-yl)quinazolin-7-yl]-2-methylimidazo[1,2-a]pyridine-8-carbonitrile], the IC50 in the assay with SMN2 mRNA and in the assay with Target C was 1000 to 10000 nM throughout.

On to `Cc1cn2cc(-c3cc(F)c4c(=O)n(C5CCOCC5)cnc4c3)cc(C#N)c2n1` [Compound 367, 6-[5-fluoro-3-(oxan-4-yl)-4-oxoquinazolin-7-yl]-2-methylimidazo[1,2-a]pyridine-8-carbonitrile], for which the IC50 in the assay with SMN2 mRNA and in the assay on Target C was 100 to 1000 nM in each case.

Turning to `Cc1cn2nc(-c3ccc4c(=O)n([C@H]5CCNC6(CC6)C5)ncc4c3)cc(C)c2n1` [Compound 369, 2-[(7S)-4-azaspiro[2.5]octan-7-yl]-6-{2,8-dimethylimidazo[1,2-b]pyridazin-6-yl}phthalazin-1-one], the IC50 in the assay on SMN2 mRNA and in the assay on Target C was under 100 nM each time.

In the case of `Cc1cn2cc(-c3cc(F)c4c(=O)n(C5CCNCC5)ccc4c3)cc(F)c2n1` [Compound 370], the values for the IC50 in the assay with SMN2 mRNA and with Target C were under 100 nM and 100 to 1000 nM, respectively.

On to `Cc1cn2nc(-c3ccc4c(=O)n([C@H]5CCNC[C@H]5F)cnc4c3)cc(C)c2n1` [Compound 372], for which the IC50 in the assay with SMN2 mRNA is under 100 nM; in the assay with Target C it was 1000 to 10000 nM.

In the case of `Cc1cc(-c2ccc3c(=O)n(C4CCNC5(COC5)C4)cnc3c2)cc2cn(C)nc12` (centres unmarked) [Compound 375], the IC50 in the assay on SMN2 mRNA and with Target C was 1000 to 10000 nM in each case.

`Cc1cc(-c2ccc3c(=O)n([C@@H]4CCNC[C@H]4F)ncc3c2)cc2cn(C)nc12` [Compound 378]: the IC50 lay in the range of 100 to 1000 nM in the assay with SMN2 mRNA and 1000 to 10000 nM in the assay on Target C.

Turning to `Cc1cn2nc(-c3ccc4c(=O)n([C@@H]5CCNC[C@H]5F)ncc4c3)cc(C)c2n1` [Compound 379], the results for the IC50 with SMN2 mRNA and in the assay with Target C were 100 to 1000 nM and 1000 to 10000 nM, respectively.

In the case of `Cc1cn2nc(-c3cc(F)c4c(=O)n(C5CCNC6(CC6)C5)ccc4c3)cc(C)c2n1` (centres unmarked) [Compound 380, 6-(2,8-dimethylimidazo[1,2-b]pyridazin-6-yl)-8-fluoro-2-(4-azaspiro[2.5]octan-7-yl)isoquinolin-1(2H)-one], the IC50 in the assay on SMN2 mRNA and in the assay with Target C was under 100 nM throughout.

Take `Cc1cn2nc(-c3ccc4c(=O)n(C5CCNCC5)cc(C)c4c3)cc(C)c2n1` [Compound 381, 6-{2,8-dimethylimidazo[1,2-b]pyridazin-6-yl}-4-methyl-2-(piperidin-4-yl)isoquinolin-1-one]: the IC50 in the assay with SMN2 mRNA was under 100 nM; in the assay on Target C it was 1000 to 10000 nM.

For the molecule `Cc1cn2cc(-c3cc(F)c4c(=O)n(C5CCNCC5)ccc4c3)cc(C#N)c2n1` [Compound 383, 6-[8-fluoro-1-oxo-2-(piperidin-4-yl)isoquinolin-6-yl]-2-methylimidazo[1,2-a]pyridine-8-carbonitrile], the IC50 in the assay on SMN2 mRNA was under 100 nM; with Target C it was 1000 to 10000 nM.

Regarding `Cc1cn2nc(-c3ccc4c(=O)n(C5CCNC6(CC6)C5)ccc4c3)cc(C)c2n1` (centres unmarked) [Compound 384], the IC50 in the assay on SMN2 mRNA is under 100 nM; with Target C, 100 to 1000 nM.

Take `Cc1cn2nc(-c3cc(C#N)c4c(=O)n(C5CCNC6(CC6)C5)ccc4c3)cc(C)c2n1` (centres unmarked) [Compound 387]: the IC50 with SMN2 mRNA was under 100 nM; in the assay with Target C it was 100 to 1000 nM.

`Cc1cn2nc(-c3cc(Cl)c4c(=O)n(C5CCNCC5)ccc4c3)cc(C)c2n1` [Compound 390, 8-chloro-6-{2,8-dimethylimidazo[1,2-b]pyridazin-6-yl}-2-(piperidin-4-yl)isoquinolin-1-one; trifluoroacetaldehyde]: the IC50 in the assay with SMN2 mRNA and in the assay with Target C was under 100 nM each time.

By IC50 is commonly meant the point on the concentration scale where inhibition reaches its midpoint.
